Experimental data as given in patent publication US9765105B2, “Macrolide compound” (Pulike Biological Engineering, Inc., priority 2013, dated 2017).

Columns and labels:
Assay in all cases: in vitro susceptibility, MIC by mini broth dilution
Assay type in all cases: cell-based
[1] = tested on: Staphylococcus aureus CVCC26003; conditions: strain CVCC26003
In short: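 S. aureus CVCC26003 was revived and subcultured twice, 20 h each at 35° C, on solid medium, then diluted 1:200 in CAMHB liquid medium. Compounds received an 11-step two-fold DMSO dilution in parallel duplicate rows. MIC was read by mini broth dilution per NCCLS guidance.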

[2] = tested on: Actinobacillus pleuropneumoniae CVCC262; conditions: strain CVCC262
In short: (§1)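 NCCLS-based mini broth dilution; inoculum from twice-streaked 35° C/20 h cultures, 1:200 in broth; compound two-fold series in DMSO, 11 steps, duplicates.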

Haemophilus parasuis = tested on: Haemophilus parasuis
In short: as §1

[3] = tested on: Pasteurella multocida CVCC399; conditions: strain CVCC399
In short: as §1

[4] = tested on: Streptococcus equines CVCC556; conditions: strain CVCC556
In short: as §1

SMILES | MIC values, Staphylococcus aureus CVCC26003 [1] | MIC values, Actinobacillus pleuropneumoniae CVCC262 [2] | MIC values, Haemophilus parasuis (Haemophilus parasuis) | MIC values, Pasteurella multocida CVCC399 [3] | MIC values, Streptococcus equines CVCC556 [4]
CC[C@H]1OC(=O)[C@H](C)[C@@H](O[C@H]2C[C@@](C)(OC)[C@](O)(CNCc3ccco3)[C@H](C)O2)[C@H](C)[C@@H](O[C@@H]2O[C@H](C)C[C@H](N(C)C)[C@H]2O)[C@](C)(O)C[C@@H](C)NC[C@H](C)[C@@H](O)[C@]1(C)O [syzx-71, (2R,3S,4R,5S,8R,10R,11R,12S,13S,14R)-13-[(2,6-dideoxy-3-C-methyl-3-O-methyl-4-C-[(2-furfuryl-amino)-methyl]-α-L-ribopyranosyl)oxy]-2-ethyl-3,4,10-trihydroxy-3,5,8,10,12,14-hexamethyl-11-[[3,4,6-trideoxy-3-(dimethylamino)-β-D-xylo-hexopyranosy]oxy]-1-oxa-7-azacyclopentadecan-15-one] | 8 ug/mi | 16 ug/mi | 8 ug/mi | ≦0.25 ug/mi | ≦0.25 ug/mi
CC[C@H]1OC(=O)[C@H](C)[C@@H](O[C@H]2C[C@@](C)(OC)[C@](O)(CNCc3cccc(N)c3)[C@H](C)O2)[C@H](C)[C@@H](O[C@@H]2O[C@H](C)C[C@H](N(C)C)[C@H]2O)[C@](C)(O)C[C@@H](C)NC[C@H](C)[C@@H](O)[C@]1(C)O [syzx-72, (2R,3S,4R,5S,8R,10R,11R,12S,13S,14R)-13-[(2,6-dideoxy-3-C-methyl-3-O-methyl-4-C-[(3-aminobenzyl-amino)-methyl]-α-L-ribopyranosyl)oxy]-2-ethyl-3,4,10-trihydroxy-3,5,8,10,12,14-hexamethyl-11-[[3,4,6-trideoxy-3-(dimethylamino)-β-D-xylo-hexopyranosy]oxy]-1-oxa-7-azacyclopentadecan-15-one] | 1 ug/mi | 16 ug/mi | 0.25 ug/mi | 1 ug/mi | ≦0.25 ug/mi
CC[C@H]1OC(=O)[C@H](C)[C@@H](O[C@H]2C[C@@](C)(OC)[C@](O)(C=NNc3ccccc3)[C@H](C)O2)[C@H](C)[C@@H](O[C@@H]2O[C@H](C)C[C@H](N(C)C)[C@H]2O)[C@](C)(O)C[C@@H](C)NC[C@H](C)[C@@H](O)[C@]1(C)O [syzx-73, (2R,3S,4R,5S,8R,10R,11R,12S,13S,14R)-13-[(2,6-dideoxy-3-C-methyl-3-O-methyl-4-C-[(phenylhydrazono)-methyl]-α-L-ribopyranosyl)oxy]-2-ethyl-3,4,10-trihydroxy-3,5,8,10,12,14-hexamethyl-11-[[3,4,6-trideoxy-3-(dimethylamino)-β-D-xylo-hexopyranosy]oxy]-1-oxa-7-azacyclopentadecan-15-one] | 1 ug/mi | 1 ug/mi | 1 ug/mi | 2 ug/mi | 0.5 ug/mi
CC[C@H]1OC(=O)[C@H](C)[C@@H](O[C@H]2C[C@@](C)(OC)[C@](O)(CNCCc3c[nH]c4ccccc34)[C@H](C)O2)[C@H](C)[C@@H](O[C@@H]2O[C@H](C)C[C@H](N(C)C)[C@H]2O)[C@](C)(O)C[C@@H](C)NC[C@H](C)[C@@H](O)[C@]1(C)O [syzx-74, (2R,3S,4R,5S,8R,10R,11R,12S,13S,14R)-13-[(2,6-dideoxy-3-C-methyl-3-O-methyl-4-C-{[2-(1H-indol-3-yl)-ethylamino]-methyl}-α-L-ribopyranosyl)oxy]-2-ethyl-3,4,10-trihydroxy-3,5,8,10,12,14-hexamethyl-11-[[3,4,6-trideoxy-3-(dimethylamino)-β-D-xylo-hexopyranosy]oxy]-1-oxa-7-azacyclopentadecan-15-one] | 1 ug/mi | 1 ug/mi | 2 ug/mi | 1 ug/mi | 0.5 ug/mi
CC[C@H]1OC(=O)[C@H](C)[C@@H](O[C@H]2C[C@@](C)(OC)[C@](O)(CNCCCCl)[C@H](C)O2)[C@H](C)[C@@H](O[C@@H]2O[C@H](C)C[C@H](N(C)C)[C@H]2O)[C@](C)(O)C[C@@H](C)NC[C@H](C)[C@@H](O)[C@]1(C)O [syzx-75, (2R,3S,4R,5S,8R,10R,11R,12S,13S,14R)-13-[(2,6-dideoxy-3-C-methyl-3-O-methyl-4-C-[(3-chloropropyl-amino)-methyl]-α-L-ribopyranosyl)oxy]-2-ethyl-3,4,10-trihydroxy-3,5,8,10,12,14-hexamethyl-11-[[3,4,6-trideoxy-3-(dimethylamino)-β-D-xylo-hexopyranosy]oxy]-1-oxa-7-azacyclopentadecan-15-one] | 4 ug/mi | 64 ug/mi | 4 ug/mi | 8 ug/mi | 4 ug/mi
CC[C@H]1OC(=O)[C@H](C)[C@@H](O[C@H]2C[C@@](C)(OC)[C@](O)(CNc3cc(OC)cc(OC)c3)[C@H](C)O2)[C@H](C)[C@@H](O[C@@H]2O[C@H](C)C[C@H](N(C)C)[C@H]2O)[C@](C)(O)C[C@@H](C)NC[C@H](C)[C@@H](O)[C@]1(C)O [syzx-76, (2R,3S,4R,5S,8R,10R,11R,12S,13S,14R)-13-[(2,6-dideoxy-3-C-methyl-3-O-methyl-4-C-[(3,5-dimethoxyphenyl-amino)-methyl]-α-L-ribopyranosyl)oxy]-2-ethyl-3,4,10-trihydroxy-3,5,8,10,12,14-hexamethyl-11-[[3,4,6-trideoxy-3-(dimethylamino)-β-D-xylo-hexopyranosy]oxy]-1-oxa-7-azacyclopentadecan-15-one] | 2 ug/mi | 64 ug/mi | 1 ug/mi | 4 ug/mi | 2 ug/mi
CCC1OC(=O)C(C)C(OC2CC(C)(OC)C(O)(CNCc3ccc(C)o3)C(C)O2)C(C)C(OC2OC(C)CC(N(C)C)C2O)C(C)(O)CC(C)NCC(C)C(O)C1(C)O [syzx-78, (2R,3S,4R,5S,8R,10R,11R,12S,13S,14R)-13-[(2,6-dideoxy-3-C-methyl-3-O-methyl-4-C-[(5-methylfurfurylamino)-methyl]-α-L-ribopyranosyl)oxy]-2-ethyl-3,4,10-trihydroxy-3,5,8,10,12,14-hexamethyl-11-[[3,4,6-trideoxy-3-(dimethylamino)-β-D-xylo-hexopyranosy]oxy]-1-oxa-7-azacyclopentadecan-15-one] | 0.25 ug/mi | 2 ug/mi | 0.25 ug/mi | 0.5 ug/mi | 0.25 ug/mi
CC[C@H]1OC(=O)[C@H](C)[C@@H](O[C@H]2C[C@@](C)(OC)[C@](O)(C=NNc3ccc(F)cc3)[C@H](C)O2)[C@H](C)[C@@H](O[C@@H]2O[C@H](C)C[C@H](N(C)C)[C@H]2O)[C@](C)(O)C[C@@H](C)NC[C@H](C)[C@@H](O)[C@]1(C)O [syzx-81, (2R,3S,4R,5S,8R,10R,11R,12S,13S,14R)-13-[(2,6-dideoxy-3-C-methyl-3-O-methyl-4-C-[(4-fluoro-phenylhydrazono)-methyl]-α-L-ribopyranosyl)oxy]-2-ethyl-3,4,10-trihydroxy-3,5,8,10,12,14-hexamethyl-11-[[3,4,6-trideoxy-3-(dimethylamino)-β-D-xylo-hexopyranosy]oxy]-1-oxa-7-azacyclopentadecan-15-one] | ≦0.25 ug/mi | 2 ug/mi | ≦0.25 ug/mi | 0.25 ug/mi | ≦0.25 ug/mi
CC[C@H]1OC(=O)[C@H](C)[C@@H](O[C@H]2C[C@@](C)(OC)[C@](O)(CNOCc3ccccc3)[C@H](C)O2)[C@H](C)[C@@H](O[C@@H]2O[C@H](C)C[C@H](N(C)C)[C@H]2O)[C@](C)(O)C[C@@H](C)NC[C@H](C)[C@@H](O)[C@]1(C)O [syzx-82, (2R,3S,4R,5S,8R,10R,11R,12S,13S,14R)-13-[(2,6-dideoxy-3-C-methyl-3-O-methyl-4-C-[(benzyloxy-amino)-methyl]-α-L-ribopyranosyl)oxy]-2-ethyl-3,4,10-trihydroxy-3,5,8,10,12,14-hexamethyl-11-[[3,4,6-trideoxy-3-(dimethylamino)-β-D-xylo-hexopyranosy]oxy]-1-oxa-7-azacyclopentadecan-15-one] | 0.5 ug/mi | 16 ug/mi | ≦0.25 ug/mi | 1 ug/mi | ≦0.25 ug/mi
CC[C@H]1OC(=O)[C@H](C)[C@@H](O[C@H]2C[C@@](C)(OC)[C@](O)(CNc3ccc(OC)cc3)[C@H](C)O2)[C@H](C)[C@@H](O[C@@H]2O[C@H](C)C[C@H](N(C)C)[C@H]2O)[C@](C)(O)C[C@@H](C)NC[C@H](C)[C@@H](O)[C@]1(C)O [syzx-83, (2R,3S,4R,5S,8R,10R,11R,12S,13S,14R)-13-[(2,6-dideoxy-3-C-methyl-3-O-methyl-4-C-[(p-methoxyphenyl-amino)-methyl]-α-L-ribopyranosyl)oxy]-2-ethyl-3,4,10-trihydroxy-3,5,8,10,12,14-hexamethyl-11-[[3,4,6-trideoxy-3-(dimethylamino)-β-D-xylo-hexopyranosy]oxy]-1-oxa-7-azacyclopentadecan-15-one] | 0.5 ug/mi | 2 ug/mi | 0.25 ug/mi | 0.25 ug/mi | 0.5 ug/mi
